For test [1], the system named is HepaRG cells. The test can be described thus: HepaRG-based assay: 3H-taurocholic acid uptake in differentiated HepaRG cells. The format is cell-based. The note with it: Homo sapiens, HepaRG, 0.3 μM 3H-taurocholic acid and 7.5 μM cold taurocholic acid, 30 minutes. The protocol: HepaRG-Based Assay Protocol
A cryopreserved vial of differentiated HepaRG cells (Biopredic International HPR116080) was thawed in HepaRG Thawing/Plating/General Purpose Medium (Biopredic International ADD670C) supplemented with 200 mM Glutamax (Gibco 35050061) following the protocol provided by Biopredic International. 70,000 cells per well were seeded in 96-wells plate (Corning CLS3809) in 100 μL of HepaRG Thawing/Plating/General Purpose Medium supplemented with 200 mM Glutamax and incubated at 37° C. in 5% CO2 for 24 hours. Post incubation, the seeding media was replaced by HepaRG Maintenance/Metabolism Medium (Biopredic International ADD620C) and incubated for 6 days, with fresh HepaRG Maintenance/Metabolism Medium replenishment every 48 hours. After 7 days incubation post seeding, incubation media was decanted from the wells and cells were washed two times with 250 μL of William's E Basal Media (Gibco 12551032). After decanting William's E Basal Media each time, plates were tapped against paper towel to ensure maximum removal of residual media.
Incubation mix was prepared by adding test inhibitor dilutions (3-fold serial dilution in DMSO (Sigma D2650)) in William's E media (basal) containing 0.3 μM 3H-taurocholic acid (ARC ART-1368) and 7.5 μM cold taurocholic acid (Sigma T4009) (maintaining 0.2% final DMSO concentration). 50 μl of incubation mix containing test inhibitors was then added to the wells (in duplicate) and the plates were incubated for 30 minutes in 5% CO2 incubator at 37° C. After incubation, the reaction was stopped by keeping the plates on ice water mix for 2-3 minutes and then the incubation mix was aspirated completely from the wells. The wells were washed two times with 250 μL of chilled unlabelled 1 mM taurocholic acid dissolved in HEPES (Gibco 15630080)-buffered (10 mM) HBSS (Gibco 14175079) (pH 7.4). The plates were tapped against a paper towel after every wash to ensure maximum removal of blocking buffer.
(§1) 100 μL of MicroScint-20 (PerkinElmer 6013621) was added to the wells and kept overnight at room temperature before reading the plates in TopCount NXT™ Microplate Scintillation and Luminescence Counter from PerkinElmer under 3H Test protocol (set at 120 seconds reading time per well, with normal plate orientation).
(§2) Preparation of Test Compound Dilutions
(§3) All test compounds were provided in powder form at room temperature. 10 mM DMSO stocks of the test compounds were prepared, aliquoted and stored at −20° C. From the 10 mM DMSO stock of the compounds, a 3-fold serial dilution in DMSO was prepared to get a total of 10 dilutions of the test compounds. 0.5 μL of this dilution in DMSO was added to 250 μL of FBS-free basal media containing 3H-taurocholic acid and cold taurocholic acid to prepare the incubation mixture.

Test [2] has as its target T1, Human LBAT (Homo sapiens, UniProt Q14973).
T1 construct: expressed in transfected cells; kept under Geneticin selection
T1 sequence (Q14973 1-349): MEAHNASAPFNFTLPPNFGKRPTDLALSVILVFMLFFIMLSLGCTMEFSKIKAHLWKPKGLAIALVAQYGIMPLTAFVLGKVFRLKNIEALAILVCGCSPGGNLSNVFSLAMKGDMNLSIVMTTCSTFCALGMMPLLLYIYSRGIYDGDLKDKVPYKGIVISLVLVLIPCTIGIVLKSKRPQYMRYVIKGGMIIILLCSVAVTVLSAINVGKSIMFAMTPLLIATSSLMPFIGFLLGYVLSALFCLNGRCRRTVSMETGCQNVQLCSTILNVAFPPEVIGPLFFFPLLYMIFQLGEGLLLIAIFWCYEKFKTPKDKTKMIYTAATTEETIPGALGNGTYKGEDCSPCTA
The experiment in a line: LBAT (h/m) assay: 3H-taurocholic acid uptake in human LBAT-overexpressing cells. The format is cell-based. Particulars: 0.3 μM 3H-taurocholic acid and 7.5 μM cold taurocholic acid, 20 minutes, read-out: hLBAT IC50. The protocol:
LBAT (h/m) Assay Protocol
20,000 cells (Human or Mouse LBAT-overexpressing cells) were seeded in 96-wells plate (Corning CLS3809) in 100 μL MEM-alpha medium (Gibco 12571-063) supplemented with 10% FBS (Gibco 10438026) containing Geneticin (Gibco 10131-027) (1 mg/mL) and incubated at 37° C. in 5% CO2 for 24 hours. After incubation, media was decanted from the wells and cells were washed two times with 300 μL of basal MEM-alpha medium (FBS-free). After decanting basal MEM-alpha medium each time, plates were tapped against paper towel to ensure maximum removal of residual media. For human LBAT, incubation mix was prepared by adding test inhibitor dilutions (3-fold serial dilution in DMSO (Sigma D2650), 10 points) in MEM-alpha (without FBS) containing 0.3 μM 3H-taurocholic acid (ARC ART-1368) and 7.5 μM cold taurocholic acid (Sigma T4009) (maintaining 0.2% final DMSO concentration). For mouse LBAT, incubation mix was prepared by adding test inhibitor dilutions (3-fold serial dilution in DMSO, 10 points) in MEM-alpha (without FBS) containing 0.3 μM 3H-taurocholic acid and 25 μM cold taurocholic acid maintaining 0.2% final DMSO concentration).
50 μL of incubation mix containing test inhibitors was then added to the wells (in duplicate) and the plates were incubated for 20 minutes in a CO2 incubator at 37° C. After incubation, the reaction was stopped by keeping the plates on ice water mix for 2-3 minutes and then the incubation mix was aspirated completely from the wells. The wells were washed two times with 250 μL of chilled unlabelled 1 mM taurocholic acid dissolved in HEPES (Gibco 15630080)-buffered (10 mM) HBSS (Gibco 14175079) (pH 7.4). The plates were tapped against a paper towel after every wash to ensure maximum removal of blocking buffer.
as §1, §2, §3

Turning to `CCCCC1(CC)CN(c2ccc(NC(=O)OC(C)(C)C)cc2)c2cc(Br)c(O/C=C/C(=O)O)cc2S(=O)(=O)C1` (centres unmarked) [Example 23, (E)-3-((7-bromo-5-(4-((tert-butoxycarbonyl)amino)phenyl)-3-butyl-3-ethyl-1,1-dioxido-2,3,4,5-tetrahydro-1,5-benzothiazepin-8-yl)oxy)acrylic Acid], the IC50 (as a rule, the midpoint of a concentration-inhibition curve) in test [1] was found to be 1200 nM; in test [2], 100 nM.
In the same order, the values of `CCCCOC(=O)Nc1ccc(N2CC(CCCC)(CCCC)CS(=O)(=O)c3cc(O/C=C/C(=O)O)c(SC)cc32)cc1` [Example 29, (E)-3-((5-(4-((butoxycarbonyl)amino)phenyl)-3,3-dibutyl-7-(methylthio)-1,1-dioxido-2,3,4,5-tetrahydro-1,5-benzothiazepin-8-yl)oxy)acrylic Acid] are 666 nM and 205 nM.
In the same order, the values of `CCCCC1(CCCC)CN(c2ccc(NC(=O)CC(C)(C)C)cc2)c2cc(SC)c(O/C=C/C(=O)O)cc2S(=O)(=O)C1` [Example 30, (E)-3-((3,3-dibutyl-5-(4-(3,3-dimethylbutanamido)phenyl)-7-(methylthio)-1,1-dioxido-2,3,4,5-tetrahydro-1,5-benzothiazepin-8-yl)oxy)acrylic Acid] are 336 nM and 107 nM.
In the same order, the values of `CCCCC1(CCCC)CN(c2ccc(NC(=O)C(C)C)cc2)c2cc(SC)c(O/C=C(\F)C(=O)O)cc2S(=O)(=O)C1` [Example 31, (Z)-3-((3,3-dibutyl-5-(4-isobutyramidophenyl)-7-(methylthio)-1,1-dioxido-2,3,4,5-tetrahydro-1,5-benzothiazepin-8-yl)oxy)-2-fluoroacrylic Acid] are 310 nM and 17 nM.
As to `CCCCC1(CCCC)CN(c2ccc(NC(=O)C(C)C)cc2)c2cc(SC)c(O/C=C/C(=O)O)cc2S(=O)(=O)C1` [Example 33, (E)-3-((3,3-dibutyl-5-(4-isobutyramidophenyl)-7-(methylthio)-1,1-dioxido-2,3,4,5-tetrahydro-1,5-benzothiazepin-8-yl)oxy)acrylic Acid], the 50% inhibitory concentration (IC50) in test [1] is 691 nM; in test [2] it was 214 nM.
As for `CCCCC1(CC)CN(c2ccc(NC(=O)C(C)(C)C)cc2)c2cc(SC)c(O/C=C/C(=O)O)cc2S(=O)(=O)C1` (centres unmarked) [Example 34, (E)-3-((3-butyl-3-ethyl-7-(methylthio)-1,1-dioxido-5-(4-pivalamidophenyl)-2,3,4,5-tetrahydro-1,5-benzothiazepin-8-yl)oxy)acrylic Acid], the 50% inhibitory concentration (IC50) in test [1] amounted to 469 nM; in test [2], 76 nM.
In the same order, the values of `CCCCC1(CCCC)CN(c2ccc(NC(=O)C3CCCC3)cc2)c2cc(SC)c(O/C=C(\F)C(=O)O)cc2S(=O)(=O)C1` [Example 35, (Z)-3-((3,3-dibutyl-5-(4-(cyclopentanecarboxamido)phenyl)-7-(methylthio)-1,1-dioxido-2,3,4,5-tetrahydro-1,5-benzothiazepin-8-yl)oxy)-2-fluoroacrylic Acid] are 590 nM and 66 nM.
Turning to `CCCCC1(CCCC)CN(c2ccc(NC(=O)C3CC3)cc2)c2cc(SC)c(O/C=C(\F)C(=O)O)cc2S(=O)(=O)C1` [Example 36, (Z)-3-((3,3-dibutyl-5-(4-(cyclopropanecarboxamido)phenyl)-7-(methylthio)-1,1-dioxido-2,3,4,5-tetrahydro-1,5-benzothiazepin-8-yl)oxy)-2-fluoroacrylic Acid], the half-inhibitory concentration (IC50) in test [1] turned out to be 877 nM; in test [2] it was 39 nM.
Take `CCCCC1(CC)CN(c2ccc(NC(=O)C3CCCC3)cc2)c2cc(SC)c(O/C=C/C(=O)O)cc2S(=O)(=O)C1` (centres unmarked) [Example 38, (E)-3-((3-butyl-5-(4-(cyclopentanecarboxamido)phenyl)-3-ethyl-7-(methylthio)-1,1-dioxido-2,3,4,5-tetrahydro-1,5-benzothiazepin-8-yl)oxy)acrylic Acid]: the concentration for half-maximal inhibition (IC50) was 454 nM in test [1] and 122 nM in test [2].
As to `CCC1(CC)CN(c2ccc(NC(=O)C(C)(C)C)cc2)c2cc(SC)c(O/C=C(\F)C(=O)O)cc2S(=O)(=O)C1` [Example 52, (Z)-3-((3,3-diethyl-7-(methylthio)-1,1-dioxido-5-(4-pivalamidophenyl)-2,3,4,5-tetrahydro-1,5-benzothiazepin-8-yl)oxy)-2-fluoroacrylic Acid], the IC50 in test [1] was determined as 191 nM; in test [2], 84 nM.

The values are drawn from patent US11306064B2, “Benzothia(di)azepine compounds and their use as bile acid modulators” (Albireo AB, priority 2018, dated 2022).
